Reference: patent US7973024B2, “24-sulfoximine vitamin D3 compounds” (Cyctochroma Inc., priority 2002, dated 2011)
pIC50: −log10 of the molar value.

How the values were obtained:
CYP24 [1] = target: T1, CYP24 (Homo sapiens, UniProt Q07973); test: In vitro test of ability to inhibit specifically CYP24 (standard protocol); type: cell-based; settings: ketoconazole as control standard
T1 construct: expressed in transfected cells
T1 sequence (Q07973 36-514): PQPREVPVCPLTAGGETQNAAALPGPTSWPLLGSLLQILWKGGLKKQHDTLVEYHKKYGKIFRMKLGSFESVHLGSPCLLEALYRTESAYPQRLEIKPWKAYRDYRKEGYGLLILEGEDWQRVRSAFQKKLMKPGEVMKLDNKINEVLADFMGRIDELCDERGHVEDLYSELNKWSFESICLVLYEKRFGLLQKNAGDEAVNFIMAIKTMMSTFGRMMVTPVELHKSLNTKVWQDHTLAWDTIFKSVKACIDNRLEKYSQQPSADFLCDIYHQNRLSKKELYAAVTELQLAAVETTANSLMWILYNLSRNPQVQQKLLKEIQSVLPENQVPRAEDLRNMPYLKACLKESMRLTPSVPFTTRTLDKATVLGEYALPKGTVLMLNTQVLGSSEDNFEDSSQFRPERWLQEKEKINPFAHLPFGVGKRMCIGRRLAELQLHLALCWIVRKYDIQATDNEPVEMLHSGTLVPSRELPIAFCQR

CYP24 [2] = target: T1, CYP24; test: CYP24 enzyme assay (stable cell line V79-CYP24 cells); type: cell-based; settings: [3H-1β]-1α,25(OH)2D3 20 nM, 2 hours
Method: 1. Preparation of Cell Suspension • On the day of the assay, washed the monolayer of V79-CYP24 cells once with 1×PBS buffer and then trypsinize for 5 min at room temperature (approx. 22° C.). Added 1×PBS. Collected cells into tube, centrifuged cells (500×g, 5 min) and resuspended in DMEM+1% BSA media.
2. Cell Plating • Added 150 μl of cell suspension to appropriately labelled wells of a 48-well plate. Incubated plate for 30 minutes at 37° C. in a humidified atmosphere containing 5% CO2 for adherence of cells to wells.
3. Compound Addition • Added 25 μl of inhibitor (10^−6 to 10^−9 M) and then after 10 min added 25 μl of substrate [^3H-1β]-1α,25(OH)2D3 (20 nM) for 2 hours at 37° C. in a humidified atmosphere containing 5% CO2. Both inhibitor and substrate were prepared in DMEM with 1% BSA media in the absence and presence of 100 μM DPPD.
4. Lipid Extraction and Counting • Added 500 μL of methanol to stop the reaction. Transferred to tube. Added 250 μl of dichloromethane and vortexed. Added 250 μl of dichloromethane and 250 μl of saturated KCL and vortexed. Centrifuged at 4000 rpm for 5 min. Triplicate 100 μl aliquots of aqueous fraction were mixed with 600 μl of scintillation fluid and the radioactivity was measured using a scintillation counter. All values were normalized for background. (iii) Results.

[3] = test system: normal human epidermal keratinocytes (NHEK); test: Human epidermal keratinocyte proliferation assay; type: cell-based; settings: together with calcitriol, three days, [3H]-thymidine 18 h
Method: 1. HEK Cell Media • Supplemented KGM media with additional reagents provided in the bullet kit as per supplier's instructions. • Added calcium chloride to final concentration of 0.3 mM.
2. Calcitriol Dilutions • Stock: Calcitriol (1 mM)
3. Substrate Dilutions • Stock: substrate (0.1 mM)
1. Cell Culture • Thawed one vial of HEK cells containing at least 500 K, and divided into 5 25 cm^2 flasks with 5 ml HEK cell media. 24 h later, removed media and replenished with 5 ml fresh media. Changed media again 48 h later.
2. Preparation of Cell Suspension • On the day of the assay, washed the monolayer of HEK cells once with 1×PBS buffer (provided in reagent pack) and then trypsinized for 5 min at 37° C. Added trypsin neutralizing solution (provided in reagent pack). Collected cells into tube, centrifuged cells (500×g, 5 min) and resuspended in HEK cell media. Counted cells and adjusted density to 150,000 cells/ml. Diluted cells further 1:30 with HEK cell media.
2. Cell Plating • Added 150 μl of cell suspension to appropriately labelled wells of a 96-well plate. Incubated plate for 48 h at 37° C. in a humidified atmosphere containing 5% CO2 for adherence of cells to wells.
3. […]
4. Cell Harvesting and Counting • Added 0.2 μCi/well of [^3H]-thymidine in 20 μl of HEK cell media to each well. Incubated plates for 18 h at 37° C. in a humidified atmosphere containing 5% CO2. Aspirated media and washed with 1×PBS. Trypsinize-cells for 30 min at 37° C. in a humidified atmosphere containing 5% CO2. Harvested cells onto filter plates using Tomtec cell harvester as per manufacturer's instructions. Added 25 μl scintillation fluid per well. Measured radioactivity using a scintillation counter. All values were normalized for background.

SCC-25 cells = test: [3H]-thymidine proliferation assay with SCC-25 cells; type: cell-based; settings: together with calcitriol, three days, [3H]-thymidine 6 h
Method: 1. Preparation of Cell Suspension • When SCC-25 cells were 70-80% confluent, aspirated media. Washed the cells with 1×PBS. Trypsinized with trypsin-EDTA from the plate, collected cells from the tissue culture flask, centrifuged (500×g, 5 min) and resuspended in media.
2. Cell Plating. • Counted the cells and adjusted the cell density to 10,000/ml. Added 200 μl per well in a 96 well plate. Incubated plate for 24 h at 37° C. in a humidified atmosphere plus 5% CO2. Aspirated used media and replaced with 150 μl per well with media.
3. Compound Addition. • Added 25 μl of 1α,25(OH)2D3 (final concentration 10^−6M, 10^−7 M, 10^−8 M, M, 10^−10 M, 10^−11 M) into each designated well. Added 25 μl of substrate (final concentration 10^−7 M, 5×10^−8 M, 10^−8 M or 10^−9 M) into each designated well. Incubated plates for 3 days at 37° C. in a humidified atmosphere plus 5% CO2.
4. ^3H-Thymidine Incorporation. • Added ^3H-thymidine at 0.02 μCi per well and incubated at 37° C. in a humidified atmosphere plus 5% CO2 for 6 h.
(§1) 5. Plate Harvesting. • Aspirated all media and washed cells with 1×PBS. Trypsinized cells for 30 min at 37° C. in a humidified atmosphere plus 5% CO2. Harvested cells onto a 96 well filter plate (Millipore) using a Tomtec Cell Harvestor, according to manufacturers instructions.
(§2) 6. Scintillation Counting. • Added 25 μl of scintillation fluid per well. Counted the plate using a scintillation counter.

VDR = target: T2, VDR (Homo sapiens, UniProt P11473); test: VDR binding assay; settings: B50: displacement of 50 percent [3H]-1,25(OH)2D3 from human recombinant VDR
T2 construct: purchased Biomol
T2 sequence (P11473 1-427): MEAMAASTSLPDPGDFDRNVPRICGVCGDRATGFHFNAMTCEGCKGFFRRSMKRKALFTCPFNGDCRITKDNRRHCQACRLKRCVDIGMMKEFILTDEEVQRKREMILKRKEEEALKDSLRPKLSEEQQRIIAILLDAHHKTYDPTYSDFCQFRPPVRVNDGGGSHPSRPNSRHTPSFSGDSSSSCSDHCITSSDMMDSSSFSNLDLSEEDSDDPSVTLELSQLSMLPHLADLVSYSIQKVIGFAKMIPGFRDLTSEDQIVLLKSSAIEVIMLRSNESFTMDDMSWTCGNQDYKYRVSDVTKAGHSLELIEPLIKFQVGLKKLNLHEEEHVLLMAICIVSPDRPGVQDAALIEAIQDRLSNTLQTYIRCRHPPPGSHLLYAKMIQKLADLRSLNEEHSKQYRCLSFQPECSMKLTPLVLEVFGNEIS
Method: 1. VDR 9.4 pmol/μl (human, recombinant, Biomol).
4. TEK300 • Tris-HCI 50 mM • EDTA 1.5 mM • KCI 300 mM Adjust pH to 7.4 (25° C.)
3. Preparation of 1.25(OH)2D3 and test compounds in ethanol
1 μl stock VDR in 2.5 ml TEDK300/Gelatin solution (500 μl/tube), (keep on ice)
• Label tubes according to the following chart, each in triplicate:
• Mixed all tubes via vortex and incubated at room temperature for 1 hour. Added 10 μL of 3H-1,25(OH)2D3 Working Dilution, mixed by vortex and incubated at room temperature for 1 hour 2. Sample processing • Thirty minutes before addition, put Charcoal/Dextran Solution on ice with continuous mixing. Added […] of Charcoal/Dextran Solution to each tube, mixed well and incubated on ice for 30 minutes. Centrifuged @ 2000 rpm for 10 minutes at 4° C. 3. Counting • Pipetted 100 μL of the upper, aqueous phase to a 24 well scintillation counting plate and added 600 μL scintillation fluid per well, covered and mixed well. Counted the plate using a scintillation counter for 5 min/sample. (iv) Calculations: • The amount of 1,25(OH)2D3 to displace 50 percent [^3H]-1,25(OH)2D3 from VDR was calculated as B50 for 1,25(OH)2D3. The VDR binding of other compounds was calculated as B50 relative to a value of 1 for 1,25(OH)2D3.

MCF-7 cells = test: [3H]-thymidine proliferation assay with MCF-7 cells; type: cell-based; settings: together with calcitriol, three days, [3H]-thymidine 6 h
Method: 1. Preparation of Cell Suspension • When MCF-7 cells were 70-80% confluent, aspirated growth media. Washed the cells with 1×PBS. Trypsinized with trypsin-EDTA from the plate, collected cells from the tissue culture flask, centrifuged (500×g, 5 min) and resuspended in growth media.
2. Cell Plating. • Counted the cells and adjusted the cell density to 25,000/ml. Added 200 μl per well in a 96 well plate. Incubated plate for 24 h at 37° C. in a humidified atmosphere plus 5% CO2. Aspirated used media and replaced with 150 μl per well with proliferation media.
3. Substrate Addition. • Added 25 μl of 1α,25(OH)2D3 (final concentration 10^−6 M, 10^−7 M, 10^−8 M, 10^−9 M, 10^−10 M, 10^−11 M) into each designated well. Added 25 μl of substrate (final concentration 10^−7 M, 5×10^−8 M, 10^−8 M or 10^−9 M) into each designated well. Incubated plates for 3 days at 37° C. in a humidified atmosphere plus 5% CO2.
4. ^3H-Thymidine incorporation. • Added ^3H-thymidine at 0.02 μCi per well and incubated at 37° C. in a humidified atmosphere plus 5% CO2 for 6 h.
as §1, §2

selective inhibition of CYP24 (CYP24 [1]) | IC50 (CYP24 [2]) | pIC50 (VDR) | SMILES | inhibition of proliferation of normal human epidermal keratinocytes (NHEK) [3] | inhibition of proliferation of SCC-25 cells (SCC-25 cells) | inhibition of proliferation of MCF-7 cells (MCF-7 cells)
selectively inhibit | 580 nM | – | C=C1/C(=C\C=C2/CCC[C@]3(C)[C@@H]([C@@H](C)/C=C/S(=N)(=O)c4ccccc4)CC[C@@H]23)C[C@@H](O)C[C@@H]1O (stereo partly shown) [I(s)] | – | – | –
selectively inhibit | 42 nM | – | C=C1/C(=C\C=C2/CCC[C@]3(C)[C@@H]([C@H](C)CCS(=N)(=O)c4ccc(F)cc4)CC[C@@H]23)C[C@@H](O)C[C@@H]1O (single isomer, unassigned) [I(p)] | – | – | –
selectively inhibit | 20 nM | – | C=C1/C(=C\C=C2/CCC[C@]3(C)[C@@H]([C@H](C)CC4(S(=N)(=O)c5ccccc5)CC4)CC[C@@H]23)C[C@@H](O)C[C@@H]1O (single isomer, unassigned) [I(o)] | act to inhibit the proliferation | act to inhibit the proliferation | –
selectively inhibit | 120 nM | < 5.70 | C=C1CC[C@H](O)C/C1=C/C=C1\CCC[C@]2(C)[C@@H]([C@H](C)CCS(=N)(=O)c3ccccc3)CC[C@@H]12 (stereo partly shown) [I(m), 24-Phenyl Sulfoximine 1-Nor Vitamin-D3] | – | – | –
selectively inhibit | – | – | C=C1/C(=C\C=C2/CCC[C@]3(C)[C@@H]([C@H](C)/C=C/S(=N)(=O)c4ccccc4)CC[C@@H]23)C[C@@H](O)C[C@@H]1O (stereo partly shown) [I(r)] | – | – | –
selectively inhibit | 78 nM | – | C=C1/C(=C\C=C2/CCC[C@]3(C)[C@@H]([C@H](C)CCS(=N)(=O)c4ccc(F)cc4)CC[C@@H]23)C[C@@H](O)C[C@@H]1O (single isomer, unassigned) [I(q)] | – | – | –
selectively inhibit | 300 nM | < 5.70 | CN=S(=O)(CC[C@@H](C)[C@H]1CC[C@H]2/C(=C/C=C3C[C@@H](O)C[C@H](O)C3)CCC[C@]12C)c1ccccc1 (single isomer, unassigned) [I(k), 24-Phenyl N-Methyl Sulfoximine 19-Nor-Vitamin-D3] | – | – | –
selectively inhibit | 42 nM | – | CN=S(=O)(CC[C@@H](C)[C@H]1CC[C@H]2/C(=C/C=C3C[C@@H](O)C[C@H](O)C3)CCC[C@]12C)c1ccccc1 (single isomer, unassigned) [I(l), 24-Phenyl N-Methyl Sulfoximine 19-Nor-Vitamin-D3] | – | act to inhibit the proliferation | –
selectively inhibit | 23 nM | – | C=C1/C(=C\C=C2/CCC[C@]3(C)[C@@H]([C@H](C)CC4(S(=N)(=O)c5ccccc5)CC4)CC[C@@H]23)C[C@@H](O)C[C@@H]1O (single isomer, unassigned) [I(n)] | act to inhibit the proliferation | act to inhibit the proliferation | act to inhibit the proliferation
selectively inhibit | 27 nM | – | C[C@H](CCS(=N)(=O)c1ccccc1)[C@H]1CC[C@H]2/C(=C/C=C3C[C@@H](O)C[C@H](O)C3)CCC[C@]12C (single isomer, unassigned) [I(j), 24 Phenyl Sulfoximine 19-Nor-Vitamin-D3] | – | act to inhibit the proliferation | –
